In patent US11304929B2, “Tosylacetate based compounds and derivatives thereof as PHGDH inhibitors” (priority 2017, dated 2022) one finds IC50 data, which are given here for 29 compounds.

The experiment has as its target PHGDH (Homo sapiens (Human), UniProt O43175). Kind of experiment: 3-Phosphoglycerate Dehydrogenase (PHGDH) Fluorescence Intensity Assay, run at two NAD/3-PG ratios: PHGDH_HIGH_NAD/3-PG (250 μM NAD/500 μM 3-PG) and PHGDH_500_NAD/3-PG (500 μM NAD/500 μM 3-PG). It is filed as biochemical.
Where [1] appears, read: 500 μM NAD/500 μM 3-PG, read-out: IC50 (PHGDH_500_NAD/3-PG).
Where [2] appears, read: 250 μM NAD/500 μM 3-PG, read-out: IC50 (PHGDH_HIGH_NAD/3-PG).

Read-outs that look alike come from different tables or passages of the source.

Chain of PHGDH (O43175 2-533 limits assumed): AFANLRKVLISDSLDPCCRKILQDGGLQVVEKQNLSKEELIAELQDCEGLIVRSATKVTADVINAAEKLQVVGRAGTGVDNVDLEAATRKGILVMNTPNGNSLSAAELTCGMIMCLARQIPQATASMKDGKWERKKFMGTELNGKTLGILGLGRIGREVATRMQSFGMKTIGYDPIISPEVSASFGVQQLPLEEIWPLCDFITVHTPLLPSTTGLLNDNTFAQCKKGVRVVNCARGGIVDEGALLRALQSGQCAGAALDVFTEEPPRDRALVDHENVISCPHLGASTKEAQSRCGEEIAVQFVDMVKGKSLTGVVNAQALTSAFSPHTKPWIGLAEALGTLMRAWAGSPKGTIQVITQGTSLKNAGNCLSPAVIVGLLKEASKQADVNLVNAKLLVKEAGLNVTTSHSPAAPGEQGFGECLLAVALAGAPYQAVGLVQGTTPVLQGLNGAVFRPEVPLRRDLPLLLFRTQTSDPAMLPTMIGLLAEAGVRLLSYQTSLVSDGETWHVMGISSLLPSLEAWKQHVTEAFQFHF
Description: This assay is used to identify compounds which inhibit the enzymatic activity of PHGDH which catalyzes the reaction of 3-Phosphoglycerate (3-PG) and NAD to 3-Phosphohydroxypyruvate and NADH.
The produced NADH is used in a coupled reaction for Diaphorase mediated reduction of Resazurin to Resorufin which can be measured in a Fluorescence Intensity readout.
The full length version of PHGDH enzyme was expressed in E. coli with an N-terminal HIS-tag and a TEV cleavage site.
The 3-Phosphoglycerate substrate was purchased from Sigma. NAD, Diaphorase and Resazurin were purchased from Sigma Aldrich.
Compounds are dispensed onto assay plates (black, low volume, flat bottom 384 well, Corning) using an Access Labcyte Workstation with the Labcyte Echo 55× from a DMSO solution. For the chosen highest assay concentration of 100 μM, 150 nl of compound solution are transferred from a 10 mM DMSO compound stock solution. A series of 11 concentrations (10 1:5 steps) is transferred for each compound.
The assay has been performed at two different NAD/3-PG ratios (final assay concentrations):
Plates are kept at room temperature. After 240 minutes incubation time the fluorescence signal is measured in a PerkinElmer Envision HTS Multilabel Reader with an excitation wavelength at 530-560 nm and an emission wavelength at 590 nm.
Each plate contains negative controls (diluted DMSO instead of test compound; reaction as described with PHGDH protein) and positive controls (diluted DMSO instead of test compound; reaction as described with buffer instead of PHGDH protein). Negative and positive control values are used for normalization.
IC50 values are calculated and analyzed in the MEGALAB IC50 application using a 4 parametric logistic model.

Consider `Cc1cc2c(cc(C(=O)N[C@H](CO)c3ccc(S(=O)(=O)CC(=O)OCCO)cc3)n2C)c(F)c1F` [Example 09-041, 2-hydroxyethyl 2-{4-[(1S)-1-[(4,5-difluoro-1,6-dimethyl-1H-indol-2-yl)formamido]-2-hydroxyethyl]benzenesulfonyl}acetate], for which the IC50 under setting [1] came out at 156 nM. On to `Cc1cc2c(cc(C(=O)N[C@H](CO)c3ccc(S(=O)(=O)CC(=O)OCC(C)(C)CO)cc3)n2C)c(F)c1F` [Example 09-042, 3-hydroxy-2,2-dimethylpropyl 2-{4-[(1S)-1-[(4,5-difluoro-1,6-dimethyl-1H-indol-2-yl)formamido]-2-hydroxyethyl]benzenesulfonyl}acetate], for which the IC50 under setting [1] stood at 509 nM. The same measure, in the same setting: the figure for `Cc1cc2c(cc(C(=O)N[C@H](CO)c3ccc(S(=O)(=O)CC(=O)OCC(C)(C)O)cc3)n2C)c(F)c1F` [Example 09-043, 2-hydroxy-2-methylpropyl 2-{4-[(1S)-1-[(4,5-difluoro-1,6-dimethyl-1H-indol-2-yl)formamido]-2-hydroxyethyl]benzenesulfonyl}acetate] is 246 nM; for `Cc1cc2c(cc(C(=O)N[C@H](CO)c3ccc(S(=O)(=O)CC(=O)OCC(C)(C)CO)cc3)n2C)c(Cl)c1Cl` [Example 09-044, 3-hydroxy-2,2-dimethylpropyl 2-{4-[(1S)-1-[(4,5-dichloro-1,6-dimethyl-1H-indol-2-yl)formamido]-2-hydroxyethyl]benzenesulfonyl}acetate] it is 419 nM. As for `COCCOC(=O)CS(=O)(=O)c1ccc([C@@H](C)NC(=O)c2cc(-c3ccccc3)nn2C)cc1` [Example 10-001, 2-methoxyethyl 2-{4-[(1R)-1-[(1-methyl-3-phenyl-1H-pyrazol-5-yl)formamido]ethyl]benzenesulfonyl}acetate], the IC50 under setting [2] was determined as 1450 nM. The same measure, in the same setting: then `C[C@@H](NC(=O)c1cc(-c2ccccc2)nn1C)c1ccc(S(=O)(=O)CC(=O)OCCN(C)C)cc1` [Example 10-002, 2-(dimethylamino)ethyl 2-{4-[(1R)-1-[(1-methyl-3-phenyl-1H-pyrazol-5-yl)formamido]ethyl]benzenesulfonyl}acetate], with 497 nM; and `C[C@@H](NC(=O)c1cc(-c2ccccc2)nn1C)c1ccc(S(=O)(=O)CC(=O)OCCF)cc1` [Example 10-004, 2-fluoroethyl 2-{4-[(1R)-1-[(1-methyl-3-phenyl-1H-pyrazol-5-yl)formamido]ethyl]benzenesulfonyl}acetate], with 1440 nM. The same measure, in the same setting: the figure for `C[C@@H](NC(=O)c1cc(-c2ccc(F)cc2)nn1C)c1ccc(S(=O)(=O)CC(=O)OCCO)cc1` [Example 10-005, 2-hydroxyethyl 2-{4-[(1R)-1-{[3-(4-fluorophenyl)-1-methyl-1H-pyrazol-5-yl]formamido}ethyl]benzenesulfonyl}acetate] is 766 nM. On to `C[C@@H](NC(=O)c1cc(-c2ccc(F)cc2)nn1C)c1ccc(S(=O)(=O)CC(=O)OCC2COC2)cc1` [Example 10-007, oxetan-3-ylmethyl 2-{4-[(1R)-1-{[3-(4-fluorophenyl)-1-methyl-1H-pyrazol-5-yl]formamido}ethyl]benzenesulfonyl}acetate], for which, under setting [2], the IC50 came out at 714 nM. Turning to `COC(=O)C[S+]([O-])c1ccc([C@@H](C)NC(=O)c2cc3c(Cl)c(Cl)c(C)cc3n2C)cc1` (stereo partly drawn) [Example 11-001, methyl 2-{4-[(1R)-1-[(4,5-dichloro-1,6-dimethyl-1H-indol-2-yl)formamido]ethyl]benzenesulfinyl}acetate], the IC50 was determined as 296 nM under setting [2] and 436 nM under setting [1]. As for `COC(=O)C[S@@+]([O-])c1ccc([C@@H](CO)NC(=O)c2cc3c(Cl)c(Cl)c(C)cc3n2C)cc1` [Example 11-002, methyl 2-[(R)-4-[(1S)-1-[(4,5-dichloro-1,6-dimethyl-1H-indol-2-yl)formamido]-2-hydroxyethyl]benzenesulfinyl]acetate], the IC50 by setting is: under setting [2], 189 nM; under setting [1], 291 nM. Regarding `COC(=O)C[S@+]([O-])c1ccc([C@@H](CO)NC(=O)c2cc3c(Cl)c(Cl)c(C)cc3n2C)cc1` [Example 11-003, methyl 2-[(S)-4-[(1S)-1-[(4,5-dichloro-1,6-dimethyl-1H-indol-2-yl)formamido]-2-hydroxyethyl]benzenesulfinyl]acetate], the IC50 was 89 nM under setting [2] and 137 nM under setting [1]. For `COC(=O)C[S+]([O-])c1ccc([C@@H](CO)NC(=O)c2cc3c(Cl)c(Cl)c(C)cc3n2C)cc1` (stereo partly drawn) [Example 11-004, methyl 2-{4-[(1S)-1-[(4,5-dichloro-1,6-dimethyl-1H-indol-2-yl)formamido]-2-hydroxyethyl]benzenesulfinyl}acetate] the same measures were 98 nM and 196 nM. `COC(=O)C[S+]([O-])c1ccc([C@@H](CO)NC(=O)c2cc3c(Cl)cc(C)cc3n2C)cc1` (stereo partly drawn) [Example 11-005, methyl 2-{4-[(1S)-1-[(4-chloro-1,6-dimethyl-1H-indol-2-yl)formamido]-2-hydroxyethyl]benzenesulfinyl}acetate]: the IC50 under setting [2] came out at 221 nM. Consider `COC(=O)C[S@@+]([O-])c1ccc([C@@H](C)NC(=O)c2cc3c(Cl)cc(C)cc3n2C)cc1` [Example 11-006, methyl 2-[(R)-4-[(1R)-1-[(4-chloro-1,6-dimethyl-1H-indol-2-yl)formamido]ethyl]benzenesulfinyl]acetate], for which the IC50 under setting [2] stood at 1120 nM. Same read-out and setting: then `COC(=O)C[S@+]([O-])c1ccc([C@@H](C)NC(=O)c2cc3c(Cl)cc(C)cc3n2C)cc1` [Example 11-007, methyl 2-[(S)-4-[(1R)-1-[(4-chloro-1,6-dimethyl-1H-indol-2-yl)formamido]ethyl]benzenesulfinyl]acetate], with 234 nM. `COC(=O)C[S@+]([O-])c1ccc([C@@H](CO)NC(=O)c2cc3c(Cl)cc(C)cc3n2C)cc1` [Example 11-008, methyl 2-[(S)-4-[(1S)-1-[(4-chloro-1,6-dimethyl-1H-indol-2-yl)formamido]-2-hydroxyethyl]benzenesulfinyl]acetate]: the IC50 under setting [2] is 120 nM. Still for that read-out and setting: the figure for `COC(=O)C[S+]([O-])c1ccc([C@@H](C)NC(=O)c2cc3c(Cl)cc(C)cc3n2C)cc1` (stereo partly drawn) [Example 11-009, methyl 2-{4-[(1R)-1-[(4-chloro-1,6-dimethyl-1H-indol-2-yl)formamido]ethyl]benzenesulfinyl}acetate] is 612 nM. Same read-out and setting: the figure for `COC(=O)C[S@@+]([O-])c1ccc([C@@H](CO)NC(=O)c2cc3c(Cl)cc(C)cc3n2C)cc1` [Example 11-010, methyl 2-[(R)-4-[(1S)-1-[(4-chloro-1,6-dimethyl-1H-indol-2-yl)formamido]-2-hydroxyethyl]benzenesulfinyl]acetate] is 447 nM. In the case of `Cc1cc2c(cc(C(=O)N[C@H](CO)c3ccc([S@@+]([O-])CC(=O)O)cc3)n2C)c(Cl)c1Cl` [Example 12-001, 2-[(S)-4-[(1S)-1-[(4,5-dichloro-1,6-dimethyl-1H-indol-2-yl)formamido]-2-hydroxyethyl]benzenesulfinyl]acetic acid], the IC50 is, setting by setting: under setting [2], 7 nM; under setting [1], 9 nM. On to `Cc1cc2c(cc(C(=O)N[C@H](CO)c3ccc([S@+]([O-])CC(=O)O)cc3)n2C)c(Cl)c1Cl` [Example 12-002, 2-[(R)-4-[(1S)-1-[(4,5-dichloro-1,6-dimethyl-1H-indol-2-yl)formamido]-2-hydroxyethyl]benzenesulfinyl]acetic acid], for which the IC50 by setting is: under setting [2], 3 nM; under setting [1], 4 nM. The matching figures for `Cc1cc2c(cc(C(=O)N[C@H](CO)c3ccc([S+]([O-])CC(=O)O)cc3)n2C)c(Cl)c1Cl` (stereo partly drawn) [Example 12-003, 2-{4-[(1S)-1-[(4,5-dichloro-1,6-dimethyl-1H-indol-2-yl)formamido]-2-hydroxyethyl]benzenesulfinyl}acetic acid]: 3 nM and 5 nM. The matching figures for `Cc1cc(Cl)c2cc(C(=O)N[C@H](C)c3ccc([S+]([O-])CC(=O)O)cc3)n(C)c2c1` (stereo partly drawn) [Example 12-004, 2-{4-[(1R)-1-[(4-chloro-1,6-dimethyl-1H-indol-2-yl)formamido]ethyl]benzenesulfinyl}acetic acid]: 11 nM and 18 nM. In the case of `Cc1cc(Cl)c2cc(C(=O)N[C@H](C)c3ccc([S@+]([O-])CC(=O)O)cc3)n(C)c2c1` [Example 12-005, 2-[(R)-4-[(1R)-1-[(4-chloro-1,6-dimethyl-1H-indol-2-yl)formamido]ethyl]benzenesulfinyl]acetic acid], the IC50 by setting is: under setting [2], 17 nM; under setting [1], 28 nM. For `Cc1cc(Cl)c2cc(C(=O)N[C@H](C)c3ccc([S@@+]([O-])CC(=O)O)cc3)n(C)c2c1` [Example 12-006, 2-[(S)-4-[(1R)-1-[(4-chloro-1,6-dimethyl-1H-indol-2-yl)formamido]ethyl]benzenesulfinyl]acetic acid], the IC50 under setting [2] amounted to 61 nM and the IC50 under setting [1] amounted to 95 nM. In the case of `Cc1cc(Cl)c2cc(C(=O)N[C@H](CO)c3ccc([S+]([O-])CC(=O)O)cc3)n(C)c2c1` (stereo partly drawn) [Example 12-007, 2-{4-[(1S)-1-[(4-chloro-1,6-dimethyl-1H-indol-2-yl)formamido]-2-hydroxyethyl]benzenesulfinyl}acetic acid], the IC50 amounted to 8 nM under setting [2] and 11 nM under setting [1].

As for `Cc1cc2c(cc(C(=O)N[C@H](C)c3ccc([S+]([O-])CC(=O)O)cc3)n2C)c(Cl)c1Cl` (stereo partly drawn) [Example 12-008, 2-{4-[(1R)-1-[(4,5-dichloro-1,6-dimethyl-1H-indol-2-yl)formamido]ethyl]benzenesulfinyl}acetic acid], under setting [1], the IC50 worked out at 8 nM.

For `Cc1cc2c(cc(C(=O)N[C@H](CO)c3ccc([S@+]([O-])CC(=O)O)cc3)n2C)c(F)c1F` [Example 12-009, 2-[(R)-4-[(1S)-1-[(4,5-difluoro-1,6-dimethyl-1H-indol-2-yl)formamido]-2-hydroxyethyl]benzenesulfinyl]acetic acid], the IC50 under setting [1] came to 32 nM. `Cc1cc2c(cc(C(=O)N[C@H](CO)c3ccc([S@@+]([O-])CC(=O)O)cc3)n2C)c(F)c1F` [Example 12-010, 2-[(S)-4-[(1S)-1-[(4,5-difluoro-1,6-dimethyl-1H-indol-2-yl)formamido]-2-hydroxyethyl]benzenesulfinyl]acetic acid]: the IC50 under setting [1] is 10 nM.
